Results from the NIST ThermoML archive (doi:10.1016/j.fluid.2006.08.007).

Legend:
[1] = Liquid, Closed cell (Static) method
[2] = excess molar enthalpy (molar enthalpy of mixing); xn = mol fraction of the nth substance listed; details: 298.15 K, 101 kPa, Liquid, Flow calorimetry

C#CCCCC [1-hexyne]
[1]
Details | vapor or sublimation pressure [kPa]
263.15 K | 2.721
273.15 K | 4.893
283.15 K | 8.363
293.15 K | 13.67
298.15 K | 17.22
303.15 K | 21.5
313.15 K | 32.65
323.15 K | 48.09
333.15 K | 68.9
343.15 K | 96.32

C#CCCCC [1-hexyne] + COC(C)(C)C
[2]
Details | excess molar enthalpy [kcal/mol]
x1 = 0.1111 | -0.0332
x1 = 0.2113 | -0.0641
x1 = 0.3134 | -0.0884
x1 = 0.389 | -0.1
x1 = 0.4482 | -0.104
x1 = 0.5204 | -0.102
x1 = 0.6206 | -0.0901
x1 = 0.7263 | -0.0712
x1 = 0.8179 | -0.0526
x1 = 0.9011 | -0.0339

CC#CCCC [2-hexyne]
[1]
Details | vapor or sublimation pressure [kPa]
263.15 K | 1.393
273.15 K | 2.608
283.15 K | 4.631
293.15 K | 7.845
298.15 K | 10.05
303.15 K | 12.75
313.15 K | 19.99
323.15 K | 30.32
333.15 K | 44.66
343.15 K | 64.09

CC#CCCC [2-hexyne] + COC(C)(C)C
[2]
Details | excess molar enthalpy [kcal/mol]
x1 = 0.1527 | -0.0143
x1 = 0.2965 | -0.0263
x1 = 0.4852 | -0.0359
x1 = 0.6624 | -0.0351
x1 = 0.7708 | -0.0287
x1 = 0.8513 | -0.0203

COC(C)(C)C [2-methoxy-2-methylpropane]
[1]
Details | vapor or sublimation pressure [kPa]
263.15 K | 6.252
273.15 K | 10.64
283.15 K | 17.31
293.15 K | 27.06
298.15 K | 33.39
303.15 K | 40.86
313.15 K | 59.81
323.15 K | 85.15
333.15 K | 118.27
343.15 K | 160.66
